# Data as given in ChEMBL document CHEMBL4138123, “Design, synthesis and biological evaluation of novel pyrazolochalcones as potential modulators of PI3K/Akt/mTOR pathway and inducers of apoptosis in breast cancer cells” (Eur J Med Chem, 2017).
# Key:
# HL-60(TB) = assay: Cytotoxicity against human HL-60(TB) cells assessed as cell growth at 100 uM after 48 hrs by sulforhodamine B assay relative to control; type: functional; conditions: HL-60, 48 h, read-out: Activity
# SNB-19 = assay: Cytotoxicity against human SNB19 cells assessed as cell growth at 0.1 uM after 48 hrs by sulforhodamine B assay relative to control; type: functional; conditions: SNB-19, 48 h, read-out: Activity
# UACC-62 = assay: Cytotoxicity against human UACC62 cells assessed as cell growth at 0.1 uM after 48 hrs by sulforhodamine B assay relative to control; type: functional; conditions: UACC-62, 48 h, read-out: Activity
# OVCAR-4 = assay: Cytotoxicity against human OVCAR4 cells assessed as growth inhibition after 48 hrs by sulforhodamine B assay; type: functional; conditions: OVCAR-4, 48 h
# IGROV-1 [1] = assay: Cytotoxicity against human IGROV1 cells assessed as cell growth at 0.1 uM after 48 hrs by sulforhodamine B assay relative to control; type: functional; conditions: IGROV-1, 48 h, read-out: Activity
# SF-268 = assay: Cytotoxicity against human SF268 cells assessed as cell growth at 0.01 uM after 48 hrs by sulforhodamine B assay relative to control; type: functional; conditions: SF-268, 48 h, read-out: Activity
# OVCAR-3 [2] = assay: Cytotoxicity against human OVCAR3 cells assessed as cell growth at 1 uM after 48 hrs by sulforhodamine B assay relative to control; type: functional; conditions: OVCAR-3, 48 h, read-out: Activity
# RXF 393 = assay: Cytotoxicity against human RXF393 cells assessed as cell growth at 10 uM after 48 hrs by sulforhodamine B assay relative to control; type: functional; conditions: RXF 393, 48 h, read-out: Activity
# SW-620 [3] = assay: Cytotoxicity against human SW620 cells assessed as cell growth at 10 uM after 48 hrs by sulforhodamine B assay relative to control; type: functional; conditions: SW-620, 48 h, read-out: Activity
# DU-145 = assay: Cytotoxicity against human DU145 cells assessed as cell growth at 100 uM after 48 hrs by sulforhodamine B assay relative to control; type: functional; conditions: DU-145, 48 h, read-out: Activity
# MCF7 [4] = assay: Cytotoxicity against human MCF7 cells assessed as growth inhibition after 48 hrs by MTT assay; type: functional, cell-based; conditions: MCF7, 48 h
# HT-29 [5] = assay: Cytotoxicity against human HT-29 cells assessed as cell growth at 10 uM after 48 hrs by sulforhodamine B assay relative to control; type: functional; conditions: HT-29, 48 h, read-out: Activity
# M14 = assay: Cytotoxicity against human M14 cells assessed as cell growth at 1 uM after 48 hrs by sulforhodamine B assay relative to control; type: functional; conditions: M14, 48 h, read-out: Activity
# MCF7 [6] = assay: Cytotoxicity against human MCF7 cells assessed as cell growth at 0.1 uM after 48 hrs by sulforhodamine B assay relative to control; type: functional; conditions: MCF7, 48 h, read-out: Activity
# BT-549 = assay: Cytotoxicity against human BT549 cells assessed as growth inhibition after 48 hrs by sulforhodamine B assay; type: functional; conditions: BT-549, 48 h
# CCRF-CEM [7] = assay: Cytotoxicity against human CCRF-CEM cells assessed as cell growth at 0.01 uM after 48 hrs by sulforhodamine B assay relative to control; type: functional; conditions: read-out: Activity
# SN12C = assay: Cytotoxicity against human SN12C cells assessed as cell growth at 0.1 uM after 48 hrs by sulforhodamine B assay relative to control; type: functional; conditions: read-out: Activity
# Hs-578T = assay: Cytotoxicity against human Hs 578T cells assessed as cell growth at 1 uM after 48 hrs by sulforhodamine B assay relative to control; type: functional; conditions: read-out: Activity
# SW-620 [8] = assay: Cytotoxicity against human SW620 cells assessed as cell growth at 100 uM after 48 hrs by sulforhodamine B assay relative to control; type: functional; conditions: SW-620, 48 h, read-out: Activity
# SW-620 [9] = assay: Cytotoxicity against human SW620 cells assessed as cell growth at 0.01 uM after 48 hrs by sulforhodamine B assay relative to control; type: functional; conditions: SW-620, 48 h, read-out: Activity
# SK-MEL-5 [10] = assay: Cytotoxicity against human SK-MEL-5 cells assessed as cell growth at 0.1 uM after 48 hrs by sulforhodamine B assay relative to control; type: functional; conditions: SK-MEL-5, 48 h, read-out: Activity
# HT-29 [11] = assay: Cytotoxicity against human HT-29 cells assessed as cell growth at 1 uM after 48 hrs by sulforhodamine B assay relative to control; type: functional; conditions: HT-29, 48 h, read-out: Activity
# HCT-116 = assay: Cytotoxicity against human HCT116 cells assessed as cell growth at 10 uM after 48 hrs by sulforhodamine B assay relative to control; type: functional; conditions: HCT-116, 48 h, read-out: Activity
# SK-MEL-5 [12] = assay: Cytotoxicity against human SK-MEL-5 cells assessed as growth inhibition after 48 hrs by sulforhodamine B assay; type: functional; conditions: SK-MEL-5, 48 h
# MOLT-4 = assay: Cytotoxicity against human MOLT4 cells assessed as cell growth at 100 uM after 48 hrs by sulforhodamine B assay relative to control; type: functional; conditions: MOLT-4, 48 h, read-out: Activity
# CCRF-CEM [13] = assay: Cytotoxicity against human CCRF-CEM cells assessed as cell growth at 10 uM after 48 hrs by sulforhodamine B assay relative to control; type: functional; conditions: read-out: Activity
# NCI-H322M = assay: Cytotoxicity against human NCI-H322M cells assessed as cell growth at 1 uM after 48 hrs by sulforhodamine B assay relative to control; type: functional; conditions: read-out: Activity
# COLO 205 = assay: Cytotoxicity against human COLO205 cells assessed as cell growth at 100 uM after 48 hrs by sulforhodamine B assay relative to control; type: functional; conditions: COLO 205, 48 h, read-out: Activity
# OVCAR-3 [14] = assay: Cytotoxicity against human OVCAR3 cells assessed as cell growth at 0.1 uM after 48 hrs by sulforhodamine B assay relative to control; type: functional; conditions: OVCAR-3, 48 h, read-out: Activity
# HOP-62 = assay: Cytotoxicity against human HOP62 cells assessed as cell growth at 100 uM after 48 hrs by sulforhodamine B assay relative to control; type: functional; conditions: HOP-62, 48 h, read-out: Activity
# IGROV-1 [15] = assay: Cytotoxicity against human IGROV1 cells assessed as cell growth at 1 uM after 48 hrs by sulforhodamine B assay relative to control; type: functional; conditions: IGROV-1, 48 h, read-out: Activity
# NCI-H522 = assay: Cytotoxicity against human NCI-H522 cells assessed as cell growth at 10 uM after 48 hrs by sulforhodamine B assay relative to control; type: functional; conditions: NCI-H522, 48 h, read-out: Activity
# SNB-75 = assay: Cytotoxicity against human SNB75 cells assessed as cell growth at 100 uM after 48 hrs by sulforhodamine B assay relative to control; type: functional; conditions: SNB-75, 48 h, read-out: Activity
# SK-MEL-28 [16] = assay: Cytotoxicity against human SK-MEL-28 cells assessed as growth inhibition after 48 hrs by sulforhodamine B assay; type: functional; conditions: SK-MEL-28, 48 h
# SK-MEL-28 [17] = assay: Cytotoxicity against human SK-MEL-28 cells assessed as cell growth at 10 uM after 48 hrs by sulforhodamine B assay relative to control; type: functional; conditions: SK-MEL-28, 48 h, read-out: Activity
# Malme-3M = assay: Cytotoxicity against human MALME-3M cells assessed as cell growth at 0.1 uM after 48 hrs by sulforhodamine B assay relative to control; type: functional; conditions: read-out: Activity
structure (smiles),measurement,setting,value
COc1cc(C(=O)/C=C/c2cc(-c3ccc4c(c3)OCO4)n[nH]2)cc(OC)c1OC,growth at 100 µM,HL-60(TB),-31%
same,growth at 0.1 µM,SNB-19,93%
same,growth at 0.1 µM,UACC-62,97%
same,GI50,OVCAR-4,0.88 µM
same,LC50,OVCAR-4,20.1 µM
same,TGI,OVCAR-4,4.24 µM
same,growth at 0.1 µM,IGROV-1 [1],87%
same,growth at 0.01 µM,SF-268,96%
same,growth at 1 µM,OVCAR-3 [2],87%
same,growth at 10 µM,RXF 393,-76%
same,growth at 10 µM,SW-620 [3],-57%
same,growth at 100 µM,DU-145,-97%
same,IC50,MCF7 [4],0.85 µM
same,growth at 10 µM,HT-29 [5],-22%
same,growth at 1 µM,M14,96%
same,growth at 0.1 µM,MCF7 [6],94%
same,GI50,BT-549,2.02 µM
same,LC50 (concentration killing 50% of cells),BT-549,20.1 µM
same,TGI,BT-549,5 µM
same,growth at 0.01 µM,CCRF-CEM [7],99%
same,growth at 0.1 µM,SN12C,96%
same,growth at 1 µM,Hs-578T,90%
same,growth at 100 µM,SW-620 [8],-65%
same,growth at 0.01 µM,SW-620 [9],98%
same,growth at 0.1 µM,SK-MEL-5 [10],95%
same,growth at 1 µM,HT-29 [11],96%
same,growth at 10 µM,HCT-116,-43%
same,GI50,SK-MEL-5 [12],3.32 µM
same,LC50 (concentration killing 50% of cells),SK-MEL-5 [12],37.7 µM
same,TGI,SK-MEL-5 [12],13.3 µM
same,growth at 100 µM,MOLT-4,-13%
same,growth at 10 µM,CCRF-CEM [13],-26%
same,growth at 1 µM,NCI-H322M,84%
same,growth at 100 µM,COLO 205,-74%
same,growth at 0.1 µM,OVCAR-3 [14],100%
same,growth at 100 µM,HOP-62,-91%
same,growth at 1 µM,IGROV-1 [15],83%
same,growth at 10 µM,NCI-H522,-71%
same,growth at 100 µM,SNB-75,-100%
same,GI50,SK-MEL-28 [16],1.92 µM
same,LC50,SK-MEL-28 [16],9.13 µM
same,TGI,SK-MEL-28 [16],4.18 µM
same,growth at 10 µM,SK-MEL-28 [17],-56%
same,growth at 0.1 µM,Malme-3M,83%
COc1cc2c(cc1OC)C(=O)/C(=C/c1cc(-c3ccc4c(c3)OCO4)n[nH]1)C2,growth at 100 µM,HL-60(TB),-36%
same,growth at 0.1 µM,SNB-19,98%
same,growth at 0.1 µM,UACC-62,106%
same,GI50,OVCAR-4,1.11 µM
same,LC50,OVCAR-4,5 µM
same,TGI,OVCAR-4,2.36 µM
same,growth at 0.1 µM,IGROV-1 [1],88%
same,growth at 0.01 µM,SF-268,95%
same,growth at 1 µM,OVCAR-3 [2],75%
same,growth at 10 µM,RXF 393,-78%
same,growth at 10 µM,SW-620 [3],-56%
same,growth at 100 µM,DU-145,-88%
same,IC50,MCF7 [4],1.02 µM
same,growth at 10 µM,HT-29 [5],-77%
same,growth at 1 µM,M14,98%
same,growth at 0.1 µM,MCF7 [6],89%
same,GI50,BT-549,1.62 µM
same,LC50 (concentration killing 50% of cells),BT-549,5.71 µM
same,TGI,BT-549,3.04 µM
same,growth at 0.01 µM,CCRF-CEM [7],97%
same,growth at 0.1 µM,SN12C,93%
same,growth at 1 µM,Hs-578T,92%
same,growth at 100 µM,SW-620 [8],-71%
same,growth at 0.01 µM,SW-620 [9],98%
same,growth at 0.1 µM,SK-MEL-5 [10],93%
same,growth at 1 µM,HT-29 [11],74%
same,growth at 10 µM,HCT-116,-75%
same,GI50,SK-MEL-5 [12],1.89 µM
same,LC50 (concentration killing 50% of cells),SK-MEL-5 [12],5.61 µM
same,TGI,SK-MEL-5 [12],3.06 µM
same,growth at 100 µM,MOLT-4,-17%
same,growth at 10 µM,CCRF-CEM [13],-44%
same,growth at 1 µM,NCI-H322M,82%
same,growth at 100 µM,COLO 205,-88%
same,growth at 0.1 µM,OVCAR-3 [14],101%
same,growth at 100 µM,HOP-62,-92%
same,growth at 1 µM,IGROV-1 [15],86%
same,growth at 10 µM,NCI-H522,-80%
same,growth at 100 µM,SNB-75,-96%
same,GI50,SK-MEL-28 [16],1.89 µM
same,LC50,SK-MEL-28 [16],6.09 µM
same,TGI,SK-MEL-28 [16],3.4 µM
same,growth at 10 µM,SK-MEL-28 [17],-92%
same,growth at 0.1 µM,Malme-3M,84%
